The results in this text go back to patent US6677369B2, “Antithrombotic agents” (Eli Lilly and Company, priority 1997, dated 2004).

Where a name gives a salt, the structure may show the parent alone.

As to `CC(C)(C)c1ccc(C(=O)Nc2ccccc2C(=O)Nc2cccc(C(=N)N)c2)cc1.Cl`, the melting point lay within 194 to 196 °C.

Regarding `CC(C)(C)c1ccc(C(=O)Nc2ccccc2NC(=O)c2cccc(C(=N)N)c2)cc1.Cl`, the melting point was in the range of 196 to 198 °C.

Regarding `CC(C)c1ccc(C(=O)Nc2ccccc2NC(=O)c2cccc(C(=N)N)c2)cc1.Cl`, the melting point lay within 227 to 229 °C.

Molecule `COc1ccc(NC(=O)c2ccccc2NC(=O)c2cccc(C(=N)N)c2)cc1` (as salt: salt) [Example 12, 2-[3-(amino(imino)methyl)benzoylamino]-N-(4-methoxyphenyl)benzamide] showed a melting point of 163 to 167 °C.

With `CCOc1ccc(C(=O)Nc2ccccc2NC(=O)c2cccc(C(=N)N)c2)cc1` [Example 38, N^1-[3-(amino(imino)methyl)benzoyl]-N^2-(4-ethoxybenzoyl)-1,2-benzenediamine], the melting point lay within 163 to 165 °C.
